Where “and” joins values, the source holds several entries; their conditions need not be identical. Equal entries are not always repeated. Where two headings read alike, the source gives them in different places.
How the values were obtained:
[1] = test system: HIV-1 infection of TZM-bl cells; assay: HIV-1 infectivity enhancement assay, β-galactosidase luminescence; assay type: cell-based; conditions: for Log10 Inf. rel. to EF-C: log10 of HIV-1 infection of TZM-bl cells relative to EF-C, Fig S15 source data, asymmetric std dev errors
[2] = assay type: physicochemical; conditions: STD prep
[3] = β-sheet content by ATR-FT-IR; assay type: physicochemical
In short: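 Measurements on freeze-dried PNF powders used a diamond ATR element, 64 scans each, with β-sheet fraction derived as previously reported. CR reflects loss of fluorescamine-reactive monomer after 3 kDa ultrafiltration, averaged over triplicates.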

[4] = Zeta-potential measurement; assay type: physicochemical; conditions: for Zeta-pot. / mV: zeta potential of peptide, Fig S15 source data
In short: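 Surface charge of aggregated peptides: 1 mg/mL solutions in PBS (pH 7.4) incubated 1 d at RT, diluted into 1 mM KCl just before reading. Electrophoretic mobility converted to zeta potential by the Smoluchowski formula; triplicate measurements from two separate experiments averaged.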

[5] = ref sieste 2021 or Schilling2019, cited from earlier work
Description: Supplement 41467_2023_40663_MOESM7_ESM.zip/FigS17.csv, table | column: Conversion Rate / % ( from sieste 2021 or Schilling2019)

[6] = Feb2021, 1.3 µM value relative to virus only (0 µM)
[7] = Feb2021, Log10 of infectivity relative to EF-C
[8] = Feb2021, n-fold enhancement relative to EF-C
[9] = Feb2021, n-fold infectivity relative to EF-C
[10] = Feb2021, unrounded values of the 1.3 µM column
[11] = Feb2021 run, infectivity n-fold relative to virus alone
[12] = Feb2021 run, log10 of infectivity relative to EF-C
[13] = Feb2021 run, n-fold infectivity relative to EF-C
[14] = infectivity class (low / medium / high) of each library peptide, main list in c1-c6, same classes repeated in sub-lists of sequences containing the hydrophobicity/charge patterns P+,H0,P+,H0,P0,H0,P0, P+,H0,P0,H0,P0,H0,P0, P+,H0,P0,H0
[15] = Feb2021, log10 of infectivity relative to EF-C
[16] = Feb2021, figures match the 1.3 µM column
[17] = Feb2021, infectivity relative to virus only
[18] = infectivity enhancement relative to EF-C (=1), Feb2021 run
[19] = infectivity n-fold relative to virus only, Feb2021 run
[20] = log10 of infectivity relative to EF-C, Feb2021 run
[21] = previously reported peptides only

Substance | n-fold to virus (Feb2021) [1, 6] | Log10 of Rel to EFC (Feb2021) [1, 7] | Rel-to EFC (Feb-2021) [1, 8] | Rel-to EFC (Feb-2021) [1, 9] | Absolute Infectivity / RLU /s (Feb2021) [1, 10] [RLU /s] | n-fold to virus (Feb2021) [1, 11] | Log10 of Rel to EFC (Feb2021) [1, 12] | Rel-to EFC (Feb-2021) [1, 13] | infectivity [1, 14] | Log10 Inf. rel. to EF-C [1] | TEM: 1= fibrils, 0= aggregates (micelle), 0.5 = aggregates and fibrils, -1 = nothing obersved, STD prep [2] | FTIR ß-sheet content/ % [3] [%] | FTIR ß-sheet content/ % ([3]; ATR-FT-IR) | Zeta category ( +1 = if > 4 mV;-1 = if < -4 mV; 0 = -4mV to 4 mV) [4] | Zeta category ( +1 = if > 4 mV;-1 = if < -4 mV; 0 = -4mV to 4 mV) ([4]; category from zeta potential) | Zeta Pot. / mV ([4]; mean, Std Zeta in next column) [mV] | Zeta Pot. / mV ([4]; mean, Std in separate column) [mV] | Zeta-pot. / mV [4] [mV] | Conversion Rate / % ( from sieste 2021 or Schilling2019) [5] [%] | Log10 of Rel to EFC (Feb2021) [1, 15] | further results
KIKIQI [JJA4] | 2.845 | -1.169 | 0.06771 | 0.06771 | 550 | 2.845 | -1.169 | 0.06771 | low | -1.169 | 0.5 | 38.6 | 39% and 38.6% | -1 (-1 = if < -4 mV) | -1 (-1 = if < -4 mV) | -5.63 | -5.63 | -5.63 | 5 | – | –
KIKIQINM [JGB2] | 15.24 | -0.4404 | 0.3627 | 0.3627 | 2947 | 15.24 | -0.4404 | 0.3627 | medium | -0.4404 | 1 | 41 | 41% | 1 (+1 = if > 4 mV) | 1 (+1 = if > 4 mV) | 8.51 | 8.51 | 8.51 | 64 | – | –
KIKIQINMWQ [JG1] | 12.47 | -0.5276 | 0.2968 | 0.2968 | 6650 | 12.47 | -0.5276 | 0.2968 | medium | -0.5276 | 1 | 42.41 | 42% and 42.41% | 1 (+1 = if > 4 mV) | 1 (+1 = if > 4 mV) | 14.87 | 14.87 | 14.87 | 93 | -0.5276 | TEM: 1= fibrils, 0= aggregates (micelle), 0.5 = aggregates and fibrils, -1 = nothing obersved, STD prep ([2]; FigS26): 1; Zeta category ( +1 = if > 4 mV;-1 = if < -4 mV; 0 = -4mV to 4 mV) ([4]; FigS26): 1 (+1 = if > 4 mV)
KIKQII [msis21] | – | -2.308 | 0.004924 | 0.004924 | – | – | – | – | – | -2.308 | 0 | 38.67 | 39% and 38.67% | -1 (-1 = if < -4 mV) | -1 (-1 = if < -4 mV) | -12.67 | -12.67 | -12.67 | – | – | Absolute Infectivity / RLU /s (Feb2021) [1, 16]: 100 RLU /s; n-fold to virus (Feb2021) [1, 17]: 0.2069; infectivity ([1]; infectivity class (low / medium / high) of the peptide in the sequence-pattern analysis, Fig. S22-A4, class limits not given): low; Rel-to EFC (Feb-2021) [1, 18]: 0.004924; n-fold to virus (Feb2021) [1, 19]: 0.2069; Log10 of Rel to EFC (Feb2021) [1, 20]: -2.308; Zeta Pot. / mV [4]: -12.67 mV; Conversion Rate / % ( from sieste 2021 or Schilling2019) [5, 21]: 6%
KIKQIINMWQ [JG2] | – | -0.4604 | 0.3464 | 0.3464 | – | – | – | – | medium | -0.4604 | 1 | 40.68 | 41% and 40.68% | 1 (+1 = if > 4 mV) | 1 (+1 = if > 4 mV) | 15.37 | 15.37 | 15.37 | – | – | Absolute Infectivity / RLU /s (Feb2021) [1, 16]: 9363 RLU /s; n-fold to virus (Feb2021) [1, 17]: 14.55; Rel-to EFC ([1]; Fig S8 panels B, D, infectivity enhancement relative to EF-C): 0.3464; n-fold to virus ([1]; Fig S8 panels B, D, infectivity n-fold relative to virus alone): 14.5544; Rel-to EFC (Feb-2021) [1, 18]: 0.3464; n-fold to virus (Feb2021) [1, 19]: 14.55; Log10 of Rel to EFC (Feb2021) [1, 20]: -0.4604; TEM: 1= fibrils, 0= aggregates (micelle), 0.5 = aggregates and fibrils, -1 = nothing obersved, STD prep ([2]; FigS26): 1; Zeta Pot. / mV [4]: 15.37 mV; Zeta category ( +1 = if > 4 mV;-1 = if < -4 mV; 0 = -4mV to 4 mV) ([4]; FigS26): 1 (+1 = if > 4 mV); Conversion Rate / % ( from sieste 2021 or Schilling2019) [5, 21]: 86%
MKFKFQF [DF5 / CK16] | 2.675 | – | – | 0.06366 | 1427 | – | – | – | low | -1.196 | 1 | – | 21.97% | 0 (0 = -4mV to 4 mV) | – | -3.133 | – | -3.133 | 75 | -1.196 | –
